{"source": "ChEMBL document CHEMBL5291721", "about": "“A preclinical secondary pharmacology resource illuminates target-adverse drug reaction associations of marketed drugs” (Nat Commun, 2023)", "key": {"Androgen receptor": {"biological_target": "T1, Androgen receptor (Homo sapiens, UniProt P10275)", "T1 sequence (P10275 whole entry)": "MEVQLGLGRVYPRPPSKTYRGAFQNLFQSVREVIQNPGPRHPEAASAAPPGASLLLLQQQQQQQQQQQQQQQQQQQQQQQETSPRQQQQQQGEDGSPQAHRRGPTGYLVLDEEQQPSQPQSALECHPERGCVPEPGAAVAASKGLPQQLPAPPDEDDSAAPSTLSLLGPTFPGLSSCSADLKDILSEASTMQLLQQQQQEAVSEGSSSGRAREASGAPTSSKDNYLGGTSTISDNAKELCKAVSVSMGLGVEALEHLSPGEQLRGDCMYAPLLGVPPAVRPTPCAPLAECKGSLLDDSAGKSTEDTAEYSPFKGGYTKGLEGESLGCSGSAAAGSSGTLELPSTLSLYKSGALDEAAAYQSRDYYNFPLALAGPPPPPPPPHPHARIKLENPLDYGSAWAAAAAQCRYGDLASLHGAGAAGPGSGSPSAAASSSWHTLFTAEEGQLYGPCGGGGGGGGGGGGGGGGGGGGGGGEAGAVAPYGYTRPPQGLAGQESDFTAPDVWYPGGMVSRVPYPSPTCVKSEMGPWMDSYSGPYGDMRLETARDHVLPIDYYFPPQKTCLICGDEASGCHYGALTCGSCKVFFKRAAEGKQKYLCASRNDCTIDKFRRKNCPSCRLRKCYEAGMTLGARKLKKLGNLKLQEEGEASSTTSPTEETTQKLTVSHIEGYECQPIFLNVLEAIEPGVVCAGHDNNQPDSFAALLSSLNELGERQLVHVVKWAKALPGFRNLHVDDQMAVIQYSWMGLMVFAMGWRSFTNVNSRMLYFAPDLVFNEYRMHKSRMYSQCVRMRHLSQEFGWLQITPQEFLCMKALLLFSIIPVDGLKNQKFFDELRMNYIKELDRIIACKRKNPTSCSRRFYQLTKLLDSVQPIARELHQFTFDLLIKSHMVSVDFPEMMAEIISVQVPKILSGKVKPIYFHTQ"}, "[1]": {"biological_target": "Sodium-dependent serotonin transporter (Homo sapiens, UniProt P31645)", "sequence (P31645 whole entry)": "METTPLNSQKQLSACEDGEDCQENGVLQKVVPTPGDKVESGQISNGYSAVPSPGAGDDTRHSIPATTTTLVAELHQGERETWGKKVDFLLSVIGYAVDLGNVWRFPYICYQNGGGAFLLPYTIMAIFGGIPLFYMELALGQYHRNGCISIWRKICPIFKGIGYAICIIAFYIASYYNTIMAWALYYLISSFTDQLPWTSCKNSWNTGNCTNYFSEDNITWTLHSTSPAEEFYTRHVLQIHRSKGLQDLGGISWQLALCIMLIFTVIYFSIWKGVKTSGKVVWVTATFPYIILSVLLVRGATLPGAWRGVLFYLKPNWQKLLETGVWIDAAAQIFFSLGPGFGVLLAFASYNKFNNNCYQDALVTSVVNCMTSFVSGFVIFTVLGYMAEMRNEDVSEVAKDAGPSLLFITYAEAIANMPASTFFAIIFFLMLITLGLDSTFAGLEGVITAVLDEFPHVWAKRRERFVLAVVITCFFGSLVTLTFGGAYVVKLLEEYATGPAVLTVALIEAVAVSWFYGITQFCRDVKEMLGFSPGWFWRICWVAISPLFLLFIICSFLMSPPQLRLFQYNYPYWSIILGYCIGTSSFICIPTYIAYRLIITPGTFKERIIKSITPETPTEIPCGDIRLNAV"}, "[2]": {"biological_target": "Gamma-aminobutyric acid receptor subunit alpha-1/alpha-2/beta-2/gamma-2 (Homo sapiens, UniProt P14867+P47870+P18507+P47869)", "sequence (P14867 whole entry)": "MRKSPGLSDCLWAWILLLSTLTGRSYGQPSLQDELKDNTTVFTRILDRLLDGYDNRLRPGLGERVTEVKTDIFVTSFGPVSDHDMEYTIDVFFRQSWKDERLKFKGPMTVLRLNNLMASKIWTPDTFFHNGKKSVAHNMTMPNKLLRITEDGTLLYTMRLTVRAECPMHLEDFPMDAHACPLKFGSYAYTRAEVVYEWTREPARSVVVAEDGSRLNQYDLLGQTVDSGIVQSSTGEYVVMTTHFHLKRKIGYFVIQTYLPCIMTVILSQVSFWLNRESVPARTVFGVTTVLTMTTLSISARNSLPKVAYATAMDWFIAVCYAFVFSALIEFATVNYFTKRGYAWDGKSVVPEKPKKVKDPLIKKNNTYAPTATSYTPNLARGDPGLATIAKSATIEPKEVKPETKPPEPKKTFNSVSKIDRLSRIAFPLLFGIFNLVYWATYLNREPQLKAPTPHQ", "sequence (P47870 whole entry)": "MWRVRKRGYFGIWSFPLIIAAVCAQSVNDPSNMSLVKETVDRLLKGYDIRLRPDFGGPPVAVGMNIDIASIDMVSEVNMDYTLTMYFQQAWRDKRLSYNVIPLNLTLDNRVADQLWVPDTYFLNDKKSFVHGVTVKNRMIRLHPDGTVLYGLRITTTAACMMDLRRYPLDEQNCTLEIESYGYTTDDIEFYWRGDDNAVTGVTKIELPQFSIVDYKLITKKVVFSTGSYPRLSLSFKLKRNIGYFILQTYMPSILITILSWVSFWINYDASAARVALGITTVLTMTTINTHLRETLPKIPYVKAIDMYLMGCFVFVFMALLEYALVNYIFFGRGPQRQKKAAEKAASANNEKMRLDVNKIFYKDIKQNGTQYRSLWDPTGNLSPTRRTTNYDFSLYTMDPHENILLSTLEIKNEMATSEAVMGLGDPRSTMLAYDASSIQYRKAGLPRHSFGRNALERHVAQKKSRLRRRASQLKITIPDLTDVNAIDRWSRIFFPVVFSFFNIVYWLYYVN", "sequence (P18507 whole entry)": "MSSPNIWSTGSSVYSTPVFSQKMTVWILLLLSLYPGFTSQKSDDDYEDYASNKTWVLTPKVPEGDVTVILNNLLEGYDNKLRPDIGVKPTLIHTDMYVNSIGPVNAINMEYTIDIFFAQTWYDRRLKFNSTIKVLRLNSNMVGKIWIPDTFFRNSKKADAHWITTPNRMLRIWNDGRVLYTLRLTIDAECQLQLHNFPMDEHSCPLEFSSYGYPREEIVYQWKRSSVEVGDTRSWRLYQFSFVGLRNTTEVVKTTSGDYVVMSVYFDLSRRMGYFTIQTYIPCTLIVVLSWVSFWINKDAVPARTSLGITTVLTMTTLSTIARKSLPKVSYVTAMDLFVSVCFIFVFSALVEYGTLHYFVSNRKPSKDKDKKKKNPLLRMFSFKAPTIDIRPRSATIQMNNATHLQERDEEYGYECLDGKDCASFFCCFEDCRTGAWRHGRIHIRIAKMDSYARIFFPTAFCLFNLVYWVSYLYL", "sequence (P47869 whole entry)": "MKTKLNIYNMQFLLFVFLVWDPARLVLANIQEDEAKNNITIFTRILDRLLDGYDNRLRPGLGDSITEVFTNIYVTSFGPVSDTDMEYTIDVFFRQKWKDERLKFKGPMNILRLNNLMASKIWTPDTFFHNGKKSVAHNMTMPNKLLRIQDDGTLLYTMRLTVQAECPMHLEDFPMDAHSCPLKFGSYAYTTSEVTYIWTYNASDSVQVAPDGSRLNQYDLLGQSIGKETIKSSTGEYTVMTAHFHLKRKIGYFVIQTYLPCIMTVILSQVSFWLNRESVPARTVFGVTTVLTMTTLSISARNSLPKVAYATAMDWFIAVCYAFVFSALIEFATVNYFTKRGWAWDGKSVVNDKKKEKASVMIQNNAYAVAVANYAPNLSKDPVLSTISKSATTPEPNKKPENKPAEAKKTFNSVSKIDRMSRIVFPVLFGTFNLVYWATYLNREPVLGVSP", "format": "functional, cell-based"}, "[3]": {"biological_target": "T2, Alpha-1A adrenergic receptor (Homo sapiens, UniProt P35348)", "T2 sequence (P35348 whole entry)": "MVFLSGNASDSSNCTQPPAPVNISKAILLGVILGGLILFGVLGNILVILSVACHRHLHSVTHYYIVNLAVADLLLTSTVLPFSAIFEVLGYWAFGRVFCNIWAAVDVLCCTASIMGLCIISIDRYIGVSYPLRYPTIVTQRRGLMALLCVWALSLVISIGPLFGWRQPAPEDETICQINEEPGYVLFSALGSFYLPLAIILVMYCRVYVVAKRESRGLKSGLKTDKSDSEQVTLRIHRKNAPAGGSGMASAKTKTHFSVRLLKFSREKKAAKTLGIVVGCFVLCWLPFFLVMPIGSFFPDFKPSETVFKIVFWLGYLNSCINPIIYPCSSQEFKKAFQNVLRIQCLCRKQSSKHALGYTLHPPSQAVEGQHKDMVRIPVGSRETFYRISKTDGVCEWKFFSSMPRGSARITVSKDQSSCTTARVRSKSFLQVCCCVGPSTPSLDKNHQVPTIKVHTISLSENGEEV", "format": "functional, cell-based"}, "[4]": {"biological_target": "T3, Alpha-2C adrenergic receptor (Homo sapiens, UniProt P18825)", "T3 sequence (P18825 whole entry)": "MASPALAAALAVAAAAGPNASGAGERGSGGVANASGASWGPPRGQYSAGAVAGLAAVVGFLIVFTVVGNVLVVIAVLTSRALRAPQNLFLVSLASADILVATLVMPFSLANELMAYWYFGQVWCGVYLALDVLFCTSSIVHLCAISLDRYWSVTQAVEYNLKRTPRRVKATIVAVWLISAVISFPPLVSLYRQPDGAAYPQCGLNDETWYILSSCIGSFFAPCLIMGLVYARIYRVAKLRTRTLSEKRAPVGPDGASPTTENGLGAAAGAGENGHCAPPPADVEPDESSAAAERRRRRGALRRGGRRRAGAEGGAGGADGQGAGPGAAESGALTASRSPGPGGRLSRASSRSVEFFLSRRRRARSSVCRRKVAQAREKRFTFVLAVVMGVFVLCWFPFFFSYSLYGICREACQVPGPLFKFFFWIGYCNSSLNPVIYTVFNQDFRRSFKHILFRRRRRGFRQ", "format": "functional"}, "Glucocorticoid receptor": {"biological_target": "T4, Glucocorticoid receptor (Homo sapiens, UniProt P04150)", "T4 sequence (P04150 whole entry)": "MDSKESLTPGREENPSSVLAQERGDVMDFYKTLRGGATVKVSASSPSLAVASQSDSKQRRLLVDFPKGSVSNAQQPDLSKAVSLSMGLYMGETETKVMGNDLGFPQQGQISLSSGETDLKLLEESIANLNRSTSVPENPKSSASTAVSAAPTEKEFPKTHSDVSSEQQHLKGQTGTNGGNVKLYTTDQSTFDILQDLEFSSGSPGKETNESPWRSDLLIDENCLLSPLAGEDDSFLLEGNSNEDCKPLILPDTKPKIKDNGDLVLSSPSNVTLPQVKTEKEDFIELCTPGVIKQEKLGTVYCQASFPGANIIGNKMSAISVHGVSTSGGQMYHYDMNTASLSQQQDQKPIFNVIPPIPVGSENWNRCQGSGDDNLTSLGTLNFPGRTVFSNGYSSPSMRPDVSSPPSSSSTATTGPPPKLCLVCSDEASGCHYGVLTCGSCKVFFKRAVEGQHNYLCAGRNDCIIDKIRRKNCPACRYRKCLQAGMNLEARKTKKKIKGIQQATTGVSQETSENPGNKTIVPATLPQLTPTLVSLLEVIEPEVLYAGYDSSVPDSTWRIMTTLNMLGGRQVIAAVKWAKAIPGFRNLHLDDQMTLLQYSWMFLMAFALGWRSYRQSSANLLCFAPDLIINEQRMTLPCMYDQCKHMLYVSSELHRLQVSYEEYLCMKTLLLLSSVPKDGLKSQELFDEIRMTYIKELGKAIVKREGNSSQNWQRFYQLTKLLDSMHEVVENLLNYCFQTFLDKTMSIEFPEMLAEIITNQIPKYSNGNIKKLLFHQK", "format": "functional"}}, "data": [{"molecule": "COLISTIN", "values": [{"measurement": "AC50", "setting": "Androgen receptor", "value": "> 30", "unit": "µM"}, {"measurement": "AC50", "setting": "[1]", "value": "> 30", "unit": "µM"}, {"measurement": "AC50", "setting": "[2]", "value": "> 30", "unit": "µM"}]}, {"molecule": "NCCCC(O)(P(=O)(O)O)P(=O)(O)O", "note": "[ALENDRONIC ACID]", "values": [{"measurement": "AC50", "setting": "[3]", "value": "> 30", "unit": "µM"}]}, {"molecule": "CC(C)CC(N(C)C)C1(c2ccc(Cl)cc2)CCC1", "note": "(stereo unspecified) [SIBUTRAMINE]", "values": [{"measurement": "AC50", "setting": "[4]", "value": 0.758, "unit": "µM"}]}, {"molecule": "COc1cccc2c1C(=O)c1c(O)c3c(c(O)c1C2=O)C[C@@](O)(C(C)=O)C[C@@H]3O[C@H]1C[C@H](N)[C@H](O)[C@H](C)O1", "note": "[DAUNORUBICIN]", "values": [{"measurement": "AC50", "setting": "Glucocorticoid receptor", "value": "> 10", "unit": "µM"}]}]}
